From PubChem BioAssay (NCI)
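Results reflect a 48-hour exposure of cells in 96-well plates to compound at five concentrations. At the GI50, growth is halved. TGI marks complete inhibition of growth.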

Key:
Experiment in all cases: inhibition of tumour cell growth, NCI panel, 48 h
T-47D breast = system: T-47D breast
A498 renal = system: A498 renal
U251 CNS = system: U251 CNS
SN12C renal = system: SN12C renal
CCRF-CEM leukemia = system: CCRF-CEM leukemia
TK-10 renal = system: TK-10 renal
RPMI-8226 leukemia = system: RPMI-8226 leukemia
SF-268 CNS = system: SF-268 CNS
MDA-MB-231 breast = system: MDA-MB-231 breast
SR leukemia = system: SR leukemia

Structure (SMILES) | GI50 (T-47D breast) | TGI (T-47D breast) | GI50 (A498 renal) | TGI (A498 renal) | GI50 (U251 CNS) | TGI (U251 CNS) | GI50 (SN12C renal) | TGI (SN12C renal) | GI50 (CCRF-CEM leukemia) | TGI (CCRF-CEM leukemia) | GI50 (TK-10 renal) | TGI (TK-10 renal) | GI50 (RPMI-8226 leukemia) | TGI (RPMI-8226 leukemia) | GI50 (SF-268 CNS) | TGI (SF-268 CNS) | GI50 (MDA-MB-231 breast) | TGI (MDA-MB-231 breast) | GI50 (SR leukemia) | TGI (SR leukemia)
Cc1ccc(NC(=O)/C=C/c2ccccc2)c(C(N)=O)c1 | 5.11 µM | > 74.4 µM | 3.61 µM | 34.6 µM | 3.8 µM | > 100 µM | 7.76 µM | > 100 µM | 2.33 µM | > 29.2 µM | 17.1 µM | > 100 µM | 2.89 µM | > 100 µM | 7.19 µM | > 100 µM | 5.37 µM | > 95.7 µM | 0.881 µM | 20.1 µM
CN(C)CCCN1c2ccccc2CCc2ccc(Cl)cc21 | 3.26 µM | 10.6 µM | 5.47 µM | 19.4 µM | 3.8 µM | 14.7 µM | 3.26 µM | 16.3 µM | 3.07 µM | 12 µM | 13.3 µM | 27.2 µM | 2.62 µM | 8.26 µM | 4.92 µM | 18.2 µM | 3.06 µM | 12 µM | 2.08 µM | 5.11 µM
C/C(=N\Nc1ccc2ccccc2n1)c1ccccn1 | < 0.0332 µM | 3.2 µM | 0.239 µM | 2.48 µM | 0.0462 µM | 1.48 µM | 0.0914 µM | 14.9 µM | – | 0.0284 µM | 0.197 µM | 16.1 µM | 0.0897 µM | 2.89 µM | 0.0489 µM | 10.8 µM | < 0.042 µM | 4.06 µM | < 0.0335 µM | 2.38 µM
CCCCNCC(=O)O[C@]1(CC)C(=O)OCc2c1cc1n(c2=O)Cc2cc3ccccc3nc2-1 | – | 2.44 µM | – | 4.64 µM | – | 4.49 µM | – | > 16.2 µM | – | 0.723 µM | – | > 96.5 µM | – | 5.77 µM | – | > 95.6 µM | – | > 100 µM | – | 0.0355 µM
O=c1[nH]c2ccccc2nc1-c1c[nH]c2ccccc12 | 8.63 µM | > 100 µM | 7.4 µM | > 100 µM | > 100 µM | > 100 µM | > 100 µM | > 100 µM | > 100 µM | > 100 µM | > 100 µM | > 100 µM | > 100 µM | > 100 µM | > 100 µM | > 100 µM | 7.38 µM | > 100 µM | > 100 µM | > 100 µM
COc1cccc(NC(=O)c2sc3nc4c(cc3c2N)CN(Cc2ccccc2)CC4)c1 | 4.62 µM | 47.3 µM | 3.82 µM | 24.4 µM | 2.74 µM | 19.2 µM | 11.2 µM | > 100 µM | 29.5 µM | > 100 µM | 4.82 µM | 21.6 µM | 38.9 µM | > 100 µM | 3.66 µM | 20.7 µM | 11.4 µM | 75.3 µM | 0.453 µM | 47.7 µM
CC(C)(C)c1ccc(OCCCCCCN2CCNCC2)cc1 | 2.22 µM | 5.94 µM | 9.44 µM | 23.1 µM | 3.32 µM | 13.2 µM | 11.7 µM | 27.8 µM | 2.88 µM | 12 µM | 13.9 µM | 27.8 µM | 2.5 µM | 6.46 µM | 10.7 µM | 24.4 µM | 2.53 µM | 7.97 µM | 2.04 µM | 5.85 µM
N/C(=N\N=C\c1ccc(-c2ccccc2)cc1)N[N+](=O)[O-] | 4.8 µM | > 100 µM | 0.418 µM | 7.58 µM | 3.05 µM | > 100 µM | 7.3 µM | > 100 µM | 3.1 µM | > 100 µM | > 100 µM | > 100 µM | 4.04 µM | > 100 µM | 7.07 µM | > 100 µM | > 68 µM | > 100 µM | 0.692 µM | > 100 µM
Cc1cc(N/N=C/c2nc(-c3ccc(Br)cc3)oc2C)c2cc(Cl)ccc2n1 | > 100 µM | > 100 µM | > 100 µM | > 100 µM | > 100 µM | > 100 µM | > 100 µM | > 100 µM | > 100 µM | > 100 µM | > 100 µM | > 100 µM | > 100 µM | > 100 µM | > 100 µM | > 100 µM | > 100 µM | > 100 µM | > 100 µM | > 100 µM
C=CC(=O)N(C)[C@H]1C[C@H]2OC(C)(C1OC)n1c3ccccc3c3c4c(c5c6ccccc6n2c5c31)C(=O)NC4 (stereo partly drawn) | 0.0774 µM | – | 0.0349 µM | 0.182 µM | 0.123 µM | 0.913 µM | 0.0521 µM | 0.931 µM | 0.0337 µM | 1.35 µM | – | – | 0.103 µM | 1.5 µM | 0.0599 µM | 1.26 µM | 0.0783 µM | 1.04 µM | 0.0983 µM | 0.776 µM
CN(C)c1ccc(/C=C\c2cccc[n+]2C)cc1 | 4.37 µM | 65.5 µM | 2.53 µM | 33.7 µM | 4.89 µM | > 100 µM | 17 µM | > 100 µM | 4.54 µM | > 100 µM | 41.1 µM | > 100 µM | 4.44 µM | 45.2 µM | 5.52 µM | > 100 µM | 13.7 µM | 93.2 µM | 24.8 µM | > 100 µM
COc1ccc(C(OCC2OC(n3ccc(NC(=O)c4ccccc4)nc3=O)C(O)C2O)(c2ccccc2)c2ccccc2)cc1 (stereo not drawn) | – | 9.42 µM | – | 2.97 µM | – | 3.48 µM | – | 3.2 µM | – | 4.39 µM | – | – | – | 4.64 µM | – | 19.8 µM | – | 4.05 µM | – | 4.96 µM
Cc1ccc(-c2cc(-c3ccc(C)cc3)nc(NCCNc3ccnc4cc(Cl)ccc34)n2)cc1 | 1.74 µM | 3.6 µM | 1.89 µM | 3.46 µM | 1.72 µM | 3.36 µM | 1.63 µM | 3.29 µM | – | – | 1.78 µM | 3.47 µM | 1.85 µM | 4.45 µM | 1.72 µM | 3.54 µM | 1.88 µM | 3.67 µM | 0.623 µM | > 100 µM
